From patent publication US12157882B2, “Lactobacillus plantarum strain ATG-K2, ATG-K6 or ATG-K8, and composition for preventing or treating vaginitis comprising same” (ATOGEN CO., LTD, priority 2018, dated 2024)

Legend:
[1] = tested on: sheep blood; assay type: cell-based
Protocol: In order to evaluate the presence or absence of hemolysis of lactic-acid bacteria in relation to safety of probiotics, K2, K6 and K8 strains were inoculated into a tryptic soybean agar (TSA, Difco Laboratories, USA) containing 5% sheep blood, and were then cultured at 37° C. for about 24 to 48 hr.

[2] = Heat resistance: viable cell count while bathing at 70° C. in a water bath; assay type: physicochemical
Protocol: In order to investigate the heat resistance of lactic-acid bacteria of the present disclosure, samples were obtained at 20 sec, 40 sec, 60 sec, and 80 sec while bathing at 70° C. in a water bath, a viable cell count was taken to thus determine resistance to heat, and the results thereof are shown in Table 2 below and in FIG. 2. In Table 2 and in FIG. 2, a viable cell count is represented as a Log10 CFU/ml value, and the number in parentheses represents the viability (%) compared to the initial count. Each result value is the average of three independent experiments.

[3] = ABTS radical-scavenging experiment with lactic-acid bacteria lysate; assay type: biochemical; conditions: for ABTS radical-scavenging activity: lactic-acid bacteria lysate, dark reaction 10 min, 734 nm; for antioxidant activity, ranking among strains: lysate, at 10 mg and above
Protocol: In order to evaluate the antioxidant activity of each of the lactic-acid bacteria strains, a radical-scavenging experiment was conducted using 2,2′-azino-bis(3-ethylbenzthiazoline-6-sulfonic acid) (ABTS, Sigma-Aldrich, Germany). Briefly, lactic-acid bacteria were cultured for about 24 hr, allowed to react with lysozyme (Sigma-Aldrich, Germany) for 2 hr at 37° C., and lysed through sonication to obtain each lactic-acid bacteria lysate. The solid content thereof was measured using a water content analyzer, and a stock solution was adjusted to a concentration of 50 mg/ml. To prepare ABTS, 14 mM ABTS stock solution and 4.9 mM potassium persulfate were mixed at a volume ratio of 1:1, followed by dark reaction overnight so that the resulting mixture turned blue-green. A working solution obtained by diluting the corresponding solution until an absorbance OD-734 reached about 0.7 was added with 10% of each lactic-acid bacteria lysate sample, followed by dark reaction for 10 min, after which the absorbance at a wavelength of 734 nm was measured, and each measured value was substituted into the following equation. ABTS radical-scavenging activity (%)={1−(ODsample/ODcontrol)}×100

[4] = tested on: Streptococcus mutans KCTC3065 (SM); experiment: Disc test, clear zone; assay type: cell-based; conditions: 35 μl culture solution on 8 mm paper disc, disc diameter subtracted; average of four tests
Protocol: (§1) In order to confirm the antimicrobial functionality of K2, K6 and K8, the antimicrobial activity of lactic-acid bacteria K2, K6 and K8 against a total of seven types of infectious or opportunistic bacteria, including four types of gram-positive SA, LM, SM, and SS and three types of gram-negative EC, PA, and CS, was determined by measuring clear zones through a disc test. Seven types of bacteria cultured overnight in a BHI plate medium were each suspended in 1× phosphate-buffered saline (PBS) until OD600 of about 0.8 was obtained. Each suspension was absorbed with a sterile cotton swab, spread over an agar medium for an antimicrobial activity test for lactic-acid bacteria, in which BHI and MRS were mixed at a ratio of 1:1, and dried for about 3 min. Each 8 mm paper disc (Advantec, Japan) was attached to the dried test agar medium, and 35 μl of each of K2, K6, and K8 solutions cultured in an MRS broth for about 18 to 20 hr was inoculated to the paper disc, dried for about 3 min, cultured at 37° C. and observed. The size of the clear zone formed after culture was determined in a manner in which the diameter thereof was measured and was calculated after subtracting 8 mm, which is the diameter of the paper disc. The unit for the diameter of the clear zone, which is each numerical value in Table 4, is mm, and each abbreviation is as follows: Staphylococcus aureus KCTC1621 (SA), Listeria monocytogenes KCTC3569 (LM), Streptococcus mutans KCTC3065 (SM), Streptococcus salivarius ATG-P1 (SS), Escherichia coli KCTC1682 (EC), Pseudomonas aeruginosa KCTC2004 (PA), Cronobacter sakazakii KCTC2949 (CS).

[5] = tested on: Pseudomonas aeruginosa KCTC2004 (PA); experiment: Disc test, clear zone; assay type: cell-based; conditions: 35 μl culture solution on 8 mm paper disc, disc diameter subtracted; average of four tests
Protocol: as §1

[6] = tested on: Streptococcus salivarius ATG-P1 (SS); experiment: Disc test, clear zone; assay type: cell-based; conditions: 35 μl culture solution on 8 mm paper disc, disc diameter subtracted; average of four tests
Protocol: as §1

[7] = tested on: Escherichia coli KCTC1682 (EC); experiment: Disc test, clear zone; assay type: cell-based; conditions: 35 μl culture solution on 8 mm paper disc, disc diameter subtracted; average of four tests
Protocol: as §1

[8] = tested on: Cronobacter sakazakii KCTC2949 (CS); experiment: Disc test, clear zone; assay type: cell-based; conditions: 35 μl culture solution on 8 mm paper disc, disc diameter subtracted; average of four tests
Protocol: as §1

[9] = tested on: Listeria monocytogenes KCTC3569 (LM); experiment: Disc test, clear zone; assay type: cell-based; conditions: 35 μl culture solution on 8 mm paper disc, disc diameter subtracted; average of four tests
Protocol: as §1

[10] = tested on: Staphylococcus aureus KCTC1621 (SA); experiment: Disc test, clear zone; assay type: cell-based; conditions: 35 μl culture solution on 8 mm paper disc, disc diameter subtracted; average of four tests
Protocol: as §1

[11] = tested on: Gardnerella vaginalis KCTC5096 (GV); experiment: Growth inhibition by cell-free culture supernatant (CFCS); assay type: cell-based; conditions: CFCS at 1× concentration, culture for 48 hr, OD600
Protocol: In order to measure the activity of the lactic-acid bacteria culture solution on inhibiting the growth of vaginitis pathogens, a 10-fold-concentrated cell-free culture supernatant (CFCS) was prepared. The culture solution of each of K2, K6 and K8 lactic-acid bacteria was centrifuged at 4,000 rpm for 25 min, thereby separating the cells of the lactic-acid bacteria and the culture supernatant from each other. The culture supernatant was filtered using a 0.2 μm pore syringe filter (Sartorius, Germany). The filtered culture supernatant was lyophilized and suspended in 1×PBS to afford a solution concentrated 10-fold compared to the volume of the initial culture solution. CA was inoculated at a concentration of 1×10^5 CFU/ml and GV was inoculated at a concentration of 1×10^6 CFU/ml under individual culture conditions. The CFCS of lactic-acid bacteria was added in a volume corresponding to 0.1 times the final volume to the vaginitis-pathogen-inoculated solution so as to reach 1×, and the test group not added with CFCS was used as a control. The mixed composition was cultured for 24 hr for CA and 48 hr for GV under individual vaginitis-pathogen culture conditions, and the absorbance was measured at a wavelength of OD600. Based on the measured absorbance, growth inhibition was determined using the following cytotoxicity calculation equation. In this equation, ODcontrol represents the absorbance of the control, and ODcfcs represents the absorbance of the CFCS-added group. Growth inhibition (%)=(ODcontrol−ODcfcs)/ODcontrol×100

[12] = Initial, average of three independent experiments

Q: What does the source list for “Lactobacillus plantarum ATG-K6 [Lb. plantarum ATG-K6]”?
A: hemolysis and clear zones [1]: not observed; viability compared to the initial count ([2]; 70° C. water bath, 20 sec): (97.27%; viable cell count ([2]; 70° C. water bath, 20 sec): 9.43 Log10 CFU/ml; viability compared to the initial count ([2]; 70° C. water bath, 40 sec): (87.46%; viable cell count ([2]; 70° C. water bath, 40 sec): 9.38 Log10 CFU/ml; viability compared to the initial count ([2]; 70° C. water bath, 60 sec): (68.88%; viable cell count ([2]; 70° C. water bath, 60 sec): 9.28 Log10 CFU/ml; viability compared to the initial count ([2]; 70° C. water bath, 60 sec, listed as K6): 68.88%; viability compared to the initial count ([2]; Initial): (100.00%; viable cell count [2, 12]: 9.44 Log10 CFU/ml; ABTS radical-scavenging activity [3]: exhibited radical-scavenging activity; antioxidant activity, ranking among strains [3]: greatest effect; diameter of the clear zone SM [4]: 4.13 ± 0.11 mm; diameter of the clear zone PA [5]: 4.00 ± 0.18 mm; diameter of the clear zone SS [6]: 3.13 ± 0.11 mm; diameter of the clear zone EC [7]: 3.50 ± 0.18 mm; diameter of the clear zone CS [8]: 6.13 ± 0.11 mm; diameter of the clear zone LM [9]: 4.75 ± 0.13 mm; diameter of the clear zone SA [10]: 4.88 ± 0.21 mm; growth inhibition of GV [11]: 28.25%

Q: What does the source list for “Lactobacillus plantarum ATG-K2 [Lb. plantarum ATG-K2]”?
A: hemolysis and clear zones [1]: not observed; viability compared to the initial count ([2]; 70° C. water bath, 20 sec): (109.65%; viable cell count ([2]; 70° C. water bath, 20 sec): 8.99 Log10 CFU/ml; viability compared to the initial count ([2]; 70° C. water bath, 40 sec): (91.33%; viable cell count ([2]; 70° C. water bath, 40 sec): 8.92 Log10 CFU/ml; viability compared to the initial count ([2]; 70° C. water bath, 60 sec): (70.95%; viable cell count ([2]; 70° C. water bath, 60 sec): 8.80 Log10 CFU/ml; viability compared to the initial count ([2]; 70° C. water bath, 60 sec, listed as K2): 70.95%; viability compared to the initial count ([2]; Initial): (100.00%; viable cell count [2, 12]: 8.95 Log10 CFU/ml; ABTS radical-scavenging activity [3]: exhibited radical-scavenging activity; diameter of the clear zone SM [4]: 4.75 ± 0.28 mm; diameter of the clear zone PA [5]: 3.75 ± 0.13 mm; diameter of the clear zone SS [6]: 4.13 ± 0.11 mm; diameter of the clear zone EC [7]: 3.38 ± 0.21 mm; diameter of the clear zone CS [8]: 6.50 ± 0.18 mm; diameter of the clear zone LM [9]: 5.50 ± 0.18 mm; diameter of the clear zone SA [10]: 5.00 ± 0.18 mm; growth inhibition of GV [11]: 37.49%

Q: What does the source list for “Lactobacillus plantarum ATG-K8 [Lb. plantarum ATG-K8]”?
A: hemolysis and clear zones [1]: not observed; viability compared to the initial count ([2]; 70° C. water bath, 20 sec): (89.67%; viable cell count ([2]; 70° C. water bath, 20 sec): 9.49 Log10 CFU/ml; viability compared to the initial count ([2]; 70° C. water bath, 40 sec): (75.26%; viable cell count ([2]; 70° C. water bath, 40 sec): 9.41 Log10 CFU/ml; viability compared to the initial count ([2]; 70° C. water bath, 60 sec): (74.32%; viable cell count ([2]; 70° C. water bath, 60 sec): 9.41 Log10 CFU/ml; viability compared to the initial count ([2]; 70° C. water bath, 60 sec, listed as K8): 74.32%; viability compared to the initial count ([2]; Initial): (100.00%; viable cell count [2, 12]: 9.55 Log10 CFU/ml; ABTS radical-scavenging activity [3]: exhibited radical-scavenging activity; antioxidant activity, ranking among strains [3]: next-greatest antioxidant activity; diameter of the clear zone SM [4]: 3.88 ± 0.11 mm; diameter of the clear zone PA [5]: 3.88 ± 0.11 mm; diameter of the clear zone SS [6]: 4.00 ± 0.18 mm; diameter of the clear zone EC [7]: 3.50 ± 0.18 mm; diameter of the clear zone CS [8]: 5.88 ± 0.11 mm; diameter of the clear zone LM [9]: 5.18 ± 0.21 mm; diameter of the clear zone SA [10]: 4.25 ± 0.13 mm; growth inhibition of GV [11]: 44.60%
